Values of other authors, collected in PMC9516332 (Frontiers in Oncology, 2022).
Read-outs that look alike come from different tables or passages of the source.

Key:
Conditions in all cases: cited from earlier work
[1] = biological target: panel of 255 wild-type kinases (Homo sapiens, UniProt Q16644)
[2] = biological target: panel of 255 wild-type kinases (Homo sapiens, UniProt P57059)
[3] = biological target: panel of 255 wild-type kinases (Homo sapiens, UniProt Q9BYP7)
[4] = biological target: T1, panel of 255 wild-type kinases (Homo sapiens, UniProt P42680)
T1 sequence (P42680 1-631): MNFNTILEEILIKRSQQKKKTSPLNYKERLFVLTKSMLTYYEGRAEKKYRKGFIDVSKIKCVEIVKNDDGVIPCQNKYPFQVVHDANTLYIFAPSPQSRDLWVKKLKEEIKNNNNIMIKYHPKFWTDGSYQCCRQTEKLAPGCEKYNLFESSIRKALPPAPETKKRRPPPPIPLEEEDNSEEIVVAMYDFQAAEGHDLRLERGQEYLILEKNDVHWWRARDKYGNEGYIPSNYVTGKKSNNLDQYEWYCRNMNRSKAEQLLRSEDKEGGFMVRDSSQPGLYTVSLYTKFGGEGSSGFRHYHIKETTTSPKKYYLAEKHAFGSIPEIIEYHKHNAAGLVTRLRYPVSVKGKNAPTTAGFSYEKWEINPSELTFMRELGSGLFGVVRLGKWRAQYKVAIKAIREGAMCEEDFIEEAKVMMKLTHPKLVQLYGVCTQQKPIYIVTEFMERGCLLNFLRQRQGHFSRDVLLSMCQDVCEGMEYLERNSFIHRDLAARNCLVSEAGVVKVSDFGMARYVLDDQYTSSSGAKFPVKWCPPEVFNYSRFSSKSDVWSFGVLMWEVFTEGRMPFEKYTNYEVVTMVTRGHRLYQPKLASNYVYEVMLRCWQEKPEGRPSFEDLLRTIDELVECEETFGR

[5] = biological target: T2, panel of 255 wild-type kinases (Homo sapiens, UniProt Q96PY6)
T2 sequence (Q96PY6 1-1258): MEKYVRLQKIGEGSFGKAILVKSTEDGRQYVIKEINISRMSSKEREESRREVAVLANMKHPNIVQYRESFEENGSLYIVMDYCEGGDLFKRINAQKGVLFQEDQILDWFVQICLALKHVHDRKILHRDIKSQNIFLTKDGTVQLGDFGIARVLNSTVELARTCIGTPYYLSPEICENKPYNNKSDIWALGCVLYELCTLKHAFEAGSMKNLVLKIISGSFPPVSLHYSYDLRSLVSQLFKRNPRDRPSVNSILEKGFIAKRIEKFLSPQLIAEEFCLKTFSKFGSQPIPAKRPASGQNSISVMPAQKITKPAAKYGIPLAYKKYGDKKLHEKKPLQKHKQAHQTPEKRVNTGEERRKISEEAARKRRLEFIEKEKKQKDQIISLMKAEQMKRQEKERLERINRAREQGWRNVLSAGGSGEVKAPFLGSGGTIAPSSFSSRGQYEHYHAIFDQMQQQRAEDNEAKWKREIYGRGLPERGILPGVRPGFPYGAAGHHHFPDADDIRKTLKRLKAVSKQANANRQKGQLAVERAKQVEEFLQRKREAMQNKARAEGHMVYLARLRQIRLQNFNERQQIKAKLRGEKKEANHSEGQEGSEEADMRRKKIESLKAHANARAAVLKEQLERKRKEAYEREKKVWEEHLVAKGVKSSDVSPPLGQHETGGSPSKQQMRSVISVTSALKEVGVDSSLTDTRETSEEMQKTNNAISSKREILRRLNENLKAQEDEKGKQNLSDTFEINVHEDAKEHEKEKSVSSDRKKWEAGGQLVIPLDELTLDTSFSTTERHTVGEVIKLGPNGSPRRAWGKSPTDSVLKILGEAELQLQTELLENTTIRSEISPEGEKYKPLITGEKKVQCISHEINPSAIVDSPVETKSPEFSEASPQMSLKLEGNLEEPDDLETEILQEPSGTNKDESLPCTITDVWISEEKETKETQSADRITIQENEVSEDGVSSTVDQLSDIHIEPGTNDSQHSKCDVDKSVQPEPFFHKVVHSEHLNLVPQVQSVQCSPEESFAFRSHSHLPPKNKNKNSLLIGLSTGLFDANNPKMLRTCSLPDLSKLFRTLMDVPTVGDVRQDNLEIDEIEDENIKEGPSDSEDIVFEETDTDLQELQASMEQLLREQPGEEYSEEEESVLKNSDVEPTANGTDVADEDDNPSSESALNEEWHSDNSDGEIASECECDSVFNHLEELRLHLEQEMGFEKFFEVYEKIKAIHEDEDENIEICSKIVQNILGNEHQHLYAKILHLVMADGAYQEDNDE

[6] = biological target: panel of 255 wild-type kinases (Homo sapiens, UniProt Q96RG2)
[7] = MAPKAPK3, 1 µmol/L single concentration, ref DOI: 10.1158/1535-7163.MCT-18-0877
[8] = kinase SIK, 1 µmol/L single concentration, ref DOI: 10.1158/1535-7163.MCT-18-0877
[9] = kinase WNK3, 1 µmol/L single concentration, ref DOI: 10.1158/1535-7163.MCT-18-0877
[10] = kinase TEC, 1 µmol/L single concentration, ref DOI: 10.1158/1535-7163.MCT-18-0877
[11] = NEK1, 1 µmol/L single concentration, ref DOI: 10.1158/1535-7163.MCT-18-0877
[12] = PASK, 1 µmol/L single concentration, ref DOI: 10.1158/1535-7163.MCT-18-0877
[13] = MAPKAPK3, 1 µmol/L single concentration, ref DOI: 10.1371/journal.pone.0092146
[14] = kinase SIK, 1 µmol/L single concentration, ref DOI: 10.1371/journal.pone.0092146
[15] = kinase WNK3, 1 µmol/L single concentration, ref DOI: 10.1371/journal.pone.0092146
[16] = kinase TEC, 1 µmol/L single concentration, ref DOI: 10.1371/journal.pone.0092146
[17] = NEK1, 1 µmol/L single concentration, ref DOI: 10.1371/journal.pone.0092146
[18] = PASK, 1 µmol/L single concentration, ref DOI: 10.1371/journal.pone.0092146

Row | SMILES | %-inhibition, MAPKAPK3 [1, 7] | %-inhibition at 1 µmol/L, SIK [2, 8] | %-inhibition at 1 µmol/L, WNK3 [3, 9] | %-inhibition at 1 µmol/L, TEC [4, 10] | %-inhibition, NEK1 [5, 11] | %-inhibition, PASK [6, 12] | %-inhibition, MAPKAPK3 [1, 13] | %-inhibition at 1 µmol/L, SIK [2, 14] | %-inhibition at 1 µmol/L, WNK3 [3, 15] | %-inhibition at 1 µmol/L, TEC [4, 16] | %-inhibition, NEK1 [5, 17] | %-inhibition, PASK [6, 18] | other results
1 | C=CC(=O)N1CCC[C@@H](n2nc(-c3ccc(Oc4ccccc4)cc3)c3c(N)ncnc32)C1 [ibrutinib] | -6.5% | 8% | 7% | 92% | 3.73% | -0.0437% | – | – | – | – | – | – | –
2 | CC(=O)Nc1cccc(-n2c(=O)n(C3CC3)c(=O)c3c(Nc4ccc(I)cc4F)n(C)c(=O)c(C)c32)c1 [trametinib] | – | – | – | – | – | – | -9% | -3% | 1% | -7.53% | -5% | -0.187% | –
3 | Cc1cc(Nc2ncc(Cl)c(Nc3ccccc3S(=O)(=O)C(C)C)n2)c(OC(C)C)cc1C1CCNCC1 [ceritinib] | -10% | 15% | 0.598% | -8% | -1.68% | 1.28% | – | – | – | – | – | – | –
4 | C[C@@H](Oc1cc(-c2cnn(C3CCNCC3)c2)cnc1N)c1c(Cl)ccc(F)c1Cl [crizotinib] | – | – | – | – | – | – | -13% | 26% | -8% | 1.53% | 2.24% | 1% | –
5 | C=CC(=O)Nc1cc(Nc2nccc(-c3cn(C)c4ccccc34)n2)c(OC)cc1N(C)CCN(C)C [osimertinib] | -9% | 22% | 1.5% | 86% | 2.43% | 2.58% | – | – | – | – | – | – | –
6 | CCCS(=O)(=O)Nc1ccc(F)c(C(=O)c2c[nH]c3ncc(-c4ccc(Cl)cc4)cc23)c1F [vemurafenib] | – | – | – | – | – | – | 12% | 24% | 53% | -0.191% | -2.74% | 2.35% | –
7 | O=C(c1ccc(F)c(F)c1Nc1ccc(I)cc1F)N1CC(O)([C@@H]2CCCCN2)C1 [cobimetinib] | 1.42% | 0.384% | 1.84% | -1% | 4.29% | 1.07% | – | – | – | – | – | – | –
8 | CC(C)(C)c1nc(-c2cccc(NS(=O)(=O)c3c(F)cccc3F)c2F)c(-c2ccnc(N)n2)s1 [dabrafenib] | – | – | – | – | – | – | -11% | 100% | 1.34% | 38% | 24% | 1.12% | –
9 | CO[C@@H]1[C@H](N(C)C(=O)c2ccccc2)C[C@H]2O[C@]1(C)n1c3ccccc3c3c4c(c5c6ccccc6n2c5c31)C(=O)NC4 [midostaurin] | -7% | 99% | 5.27% | 58% | 13% | 6% | – | – | – | – | – | – | –
10 | CC#CC(=O)N1CCC[C@H]1c1nc(-c2ccc(C(=O)Nc3ccccn3)cc2)c2c(N)nccn12 [acalabrutinib] | -11% | 0.256% | -0.259% | 96% | -7.46% | -5.37% | – | – | – | – | – | – | –
11 | CCc1cc2c(cc1N1CCC(N3CCOCC3)CC1)C(C)(C)c1[nH]c3cc(C#N)ccc3c1C2=O [alectinib] | -0.429% | 12% | 0.437% | 1.06% | 5% | -2.6% | – | – | – | – | – | – | –
12 | COc1cc(N2CCC(N3CCN(C)CC3)CC2)ccc1Nc1ncc(Cl)c(Nc2ccccc2P(C)(C)=O)n1 [brigatinib] | – | – | – | – | – | – | – | – | – | – | – | – | %-inhibition, MAPKAPK3 [1]: -0.903%; %-inhibition at 1 µmol/L, SIK [2]: 99%; %-inhibition at 1 µmol/L, WNK3 [3]: 1%; %-inhibition at 1 µmol/L, TEC [4]: 40%; %-inhibition, NEK1 [5]: 8%; %-inhibition, PASK [6]: -5%
